Residues, ends and D or L forms follow the SMILES beside them. *: point of attachment. Bz = O=C(c1ccccc1)*
Key:
[1] = molecular target: T1, Angiotensin I-converting enzyme (ACE, CD143) (Homo sapiens, UniProt P12821); experiment: fluorimetric hydrolysis assay (His-Leu product), […] substrate; format: cell-based
T1 construct: full-length somatic ACE, CHO cell lysate

[2] = molecular target: T2, Angiotensin I-converting enzyme (ACE, CD143) (Homo sapiens, UniProt P12821, S362W); experiment: as above; format: cell-based
T2 construct: full-length somatic ACE, CHO cell lysate
T2 sequence (P12821 30-1306 S362W): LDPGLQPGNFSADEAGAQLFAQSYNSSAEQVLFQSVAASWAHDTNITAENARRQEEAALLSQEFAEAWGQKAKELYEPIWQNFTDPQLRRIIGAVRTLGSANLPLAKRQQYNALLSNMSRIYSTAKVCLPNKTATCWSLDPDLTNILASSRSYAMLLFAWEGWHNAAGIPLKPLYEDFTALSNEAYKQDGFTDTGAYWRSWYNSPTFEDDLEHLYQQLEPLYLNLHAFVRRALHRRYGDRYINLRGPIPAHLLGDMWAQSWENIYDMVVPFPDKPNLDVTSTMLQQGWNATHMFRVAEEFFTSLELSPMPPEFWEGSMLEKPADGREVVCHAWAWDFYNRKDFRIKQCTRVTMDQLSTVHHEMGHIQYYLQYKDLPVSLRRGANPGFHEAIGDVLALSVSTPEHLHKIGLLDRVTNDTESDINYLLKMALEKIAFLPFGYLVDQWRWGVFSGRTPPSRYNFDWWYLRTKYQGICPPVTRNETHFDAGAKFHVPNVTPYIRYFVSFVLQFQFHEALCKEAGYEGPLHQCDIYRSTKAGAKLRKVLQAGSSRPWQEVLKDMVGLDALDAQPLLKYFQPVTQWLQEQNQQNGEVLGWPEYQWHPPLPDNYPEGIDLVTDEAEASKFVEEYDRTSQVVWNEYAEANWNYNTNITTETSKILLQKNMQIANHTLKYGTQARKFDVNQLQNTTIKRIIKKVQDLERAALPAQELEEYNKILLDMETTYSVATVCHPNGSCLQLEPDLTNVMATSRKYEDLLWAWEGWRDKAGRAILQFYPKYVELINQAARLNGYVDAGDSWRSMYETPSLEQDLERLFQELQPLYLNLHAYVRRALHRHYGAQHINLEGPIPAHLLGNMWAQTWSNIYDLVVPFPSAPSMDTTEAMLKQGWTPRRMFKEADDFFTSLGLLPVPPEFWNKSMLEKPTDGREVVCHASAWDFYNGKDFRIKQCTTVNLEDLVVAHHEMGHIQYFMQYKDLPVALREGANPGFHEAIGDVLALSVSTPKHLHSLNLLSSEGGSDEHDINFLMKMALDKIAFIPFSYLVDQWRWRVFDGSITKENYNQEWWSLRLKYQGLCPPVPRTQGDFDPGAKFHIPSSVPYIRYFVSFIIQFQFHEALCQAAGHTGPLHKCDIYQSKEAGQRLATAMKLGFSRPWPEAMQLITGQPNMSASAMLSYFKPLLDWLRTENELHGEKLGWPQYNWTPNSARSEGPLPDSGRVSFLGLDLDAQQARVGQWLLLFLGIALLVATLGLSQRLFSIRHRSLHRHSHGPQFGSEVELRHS

T1 sequence (P12821 30-1306): as the sequence (P12821 30-1306 S362W) above, with W333S counted along it

Structure (SMILES): CC(C)C[C@H](NC(=O)[C@H](Cc1cnc[nH]1)NC(=O)CNC(=O)c1ccccc1)C(=O)O [Hip-His-Leu] (Bz-Gly-His-Leu-OH)
- fluorimetric hydrolysis assay (His-Leu product), 5 mM substrate [1]: stably expressing WT and mutant ACE was determined with substrates Hip-His-Leu and Z-Phe-His –Leu
- fluorimetric hydrolysis assay (His-Leu product), 5 mM substrate [2]: stably expressing WT and mutant ACE was determined with substrates Hip-His-Leu and Z-Phe-His –Leu
